Species on record: Bos taurus
Experiment: Binding affinity on adrenal cortex microsomes
Assay type: functional

Row | Structure (SMILES) | Kd [µM]
1 | O=P(O)(O)O[C@@H]1[C@H](O)[C@H](O)[C@@H](OP(=O)(O)O)[C@H](OP(=O)(O)O)[C@H]1O [INS(1,4,5)P3] | 0.01
2 | O=P(O)(O)O[C@@H]1[C@H](O)[C@H](O)[C@@H](OP(=O)(O)O)[C@H](OP(=O)(O)O)[C@H]1F | 1.6
3 | O=P(O)(O)O[C@@H]1CC[C@@H](OP(=O)(O)O)[C@H](OP(=O)(O)O)C1 | 4

From ChEMBL document CHEMBL1150485, “Rapid synthesis and properties of ()-6-Deoxy-6-fluoro-myo-inositol-1,4,5-tris(phosphate) an analogue of myo-inositol-1,4,5-tris(phosphate)” (Bioorg Med Chem Lett, 1996)
